This assay addresses T1, Sirtuin 7 (SIRT7) (Homo sapiens, UniProt Q9NRC8).
T1 construct: his-tagged full length SIRT7 (pET-28a, E. coli BL21(DE3))
T1 sequence (Q9NRC8 1-400): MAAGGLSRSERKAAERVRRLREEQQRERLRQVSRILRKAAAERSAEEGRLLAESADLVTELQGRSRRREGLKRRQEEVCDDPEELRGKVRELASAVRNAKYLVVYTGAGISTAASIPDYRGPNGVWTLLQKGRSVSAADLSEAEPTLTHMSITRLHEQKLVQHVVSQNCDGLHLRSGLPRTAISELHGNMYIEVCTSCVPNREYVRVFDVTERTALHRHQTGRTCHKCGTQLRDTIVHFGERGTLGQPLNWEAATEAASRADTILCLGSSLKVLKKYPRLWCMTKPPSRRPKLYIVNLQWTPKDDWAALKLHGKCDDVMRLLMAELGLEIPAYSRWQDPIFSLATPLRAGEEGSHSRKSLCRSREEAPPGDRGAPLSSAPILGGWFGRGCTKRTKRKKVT
Nature of the assay: fluorescent MCA-peptide (H3K18) deacylation assay with purified SIRT7, dose-response. Format: biochemical.

Consider `COC(=O)/C(=C\C(=O)c1ccc(O)c(O)c1)c1ccc(O)c(O)c1` [YZL-51N], for which the midpoint of inhibition, the IC50, lay at 12.7 µM.

Source of the values: PMC11995078, “Protocol for high-throughput screening of SIRT7 inhibitors using fluorescent peptide technology” (STAR Protocols, 2025).
